Results reported in patent US20040082664A1, “Derivatives of hydroxyphenyl, a method for preparing thereof and their pharmaceutical composition” (priority 2002, published 2004).
pIC50: −log10 of the molar value.

Experiments:
GST-fused lck SH2 domain = target: T1, GST-fused lck SH2 domain (Homo sapiens, UniProt P06239); assay: Inhibition of in vitro binding of lck SH2 domain to its cognate pYEEI peptide (BIAcore 2000); conditions: IC50 class for inhibition of GST-lckSH2 binding to immobilized biotinylated […]pYEEIPI peptide; read-out: BOND DEGREE WITH SH2 OF 1ck
T1 construct: GST (Glutathione transferase)-fused lck SH2 domain
T1 sequence (P06239 127-224 limits assumed): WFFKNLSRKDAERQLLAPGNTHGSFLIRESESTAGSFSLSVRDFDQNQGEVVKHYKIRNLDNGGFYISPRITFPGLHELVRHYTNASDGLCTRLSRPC
Method: The present inventors investigated the inhibition activity of phenyl derivatives on the interaction of GST (Glutathione transferase)-fused lck SH2 domain and a peptide […]pYEEIPI (comprising the sequence PYEEI, a cognate peptide of Lck SH2) by using a real time sensorgram (BIAcore 2000).
At first, the biotinylated peptide was fixed on the surface of BIAcore analysis apparatus and then GST-lckSH2 protein was injected over the surface of the immobilized peptides. The binding of GST-lck SH2 with the peptide is represented as the resonance units (referred as “RU” hereinafter) and 1,000 RU corresponds to a change in surface concentration of 1 ng/mm^2. The binding of GST-lck with the fixed peptide causes the change of refractory index, leading to the increase of RU. In the mean time, when the binding of GST-lck with the fixed peptide is inhibited, RU decreases. Those results are represented in Table 1.

skin allograft rejection = assay: Inhibition of skin allograft rejection (Balb/c tail skin grafted onto C57BL/6 mouse); format: in vivo
Method: For the experiment, allogeneic Balb/c(H-2d) mouse-tail skin was grafted onto C57BL/6(H-2b) mouse. Generally 7-8 mice were assigned to each group. All the phenyl derivatives were dissolved in 100% ethanol, mixed with olive oil, and adjusted to the final concentration of ethanol therein less than 5%. […] Meanwhile, for the group of untreated mice, an olive oil-ethanol mixture was administered as a control. The grafted skin was monitored daily after the removal of the bandage on days 7-9. Rejection was defined as more than 80% necrosis of the graft epithelium.

[1] = system: collagen-induced rheumatoid arthritis; assay: Inhibition of collagen-induced rheumatoid arthritis in DBA1/LacJ mice; format: in vivo, mouse; set-up: key: sum of 4 leg scores (0-4 each), max 16; conditions: 50 mg/kg/day i.p. daily; day 15 after treatment (day 36 after primary immunization); sum of scores of four legs, maximum 16; mean ± standard deviation
Method: After 2 weeks, booster immunization was carried out with 50 μg C II/IFA. From the 3rd week after primary immunization, compounds of the present invention were injected daily into peritoneal cavities of 6-8 mice per group for 15-20 days.
The vehicle control groups were injected daily with 100 μl of 5% ethanol-olive oil mixture in total 15-20 times. Widely used anti-rheumatic drug, Methotrexate, was dissolved in PBS and then injected to mice at 1 mg/kg/day every other day in total 8-10 times. Meanwhile, the compounds of the invention were dissolved in ethanol and then mulsified in olive oil, in which the final ethanol concentration was adjusted to 5% and the compounds of this invention was 50 mg/kg/day.
From the 3rd week after primary immunization, the extent of edema and the joint swelling was monitored everyday to determine arthritic index. Arthitic index is the sum of the arthritic scores of all 4 legs and, therefore, maximum arthritis index of 16 can be achieved (e.g., [4 (maximum arthritic score)/leg]×[4 legs/mouse]=16 (maximum arthritis index/mouse)). […] was presented by the mean arthritis index±standard deviation of each mouse group.

IL-2 promoter = IL-2 promoter luciferase reporter assay in anti-CD3 activated Jurkat cells; format: cell-based; conditions: Homo sapiens, TCR-induced (anti-CD3) IL-2 promoter luciferase, 2 h pre-incubation
Method: In order to confirm whether the compounds of the invention can pass through a cell membrane and inhibit the expression of IL-2 gene leading to T-cell proliferation, the present inventors firstly confirmed T-cell activity by detecting the activity of the luciferase fused on the downstream of IL-2 promoter.
To investigate the activity of IL-2 promoter, Jurkat cells (1×10^6) were transfected with a IL-2 reporter plasmids using Superfect™ (Qiagen Inc.). After 24 hours of transfection, Jurkat cells were pre-incubated with compounds of various concentrations (1 uM-50 uM) for 2 hours and further cultured on 35mm plate pre-coated with 5 ug/ml of anti-CD3 antibody, resulting in T cell activation. The luciferase activity was measured using Berthold luminometer LB953. The IC50 (50% inhibition concentration) of the compounds of the invention on TCR-induced IL-2 promoter activation are shown in Table 2.

[2] = 100 mg/kg/day into abdominal cavity from day of transplantation until complete rejection

| SMILES | pIC50 (GST-fused lck SH2 domain) | Survival time of skin graft tissue (days ± variance) (skin allograft rejection; [2]) | Arthritis index [1] | pIC50 (IL-2 promoter) | Survival time of skin graft tissue (days ± variance) (skin allograft rejection; Rapamycine 1 mg/kg/day) | Survival time of skin graft tissue (days ± variance) (skin allograft rejection; Rapamycine 4 mg/kg/day) |
| --- | --- | --- | --- | --- | --- | --- |
| CCCOC(=O)[C@H](Cc1ccc(O)c(O)c1)NC(=S)/C=C/c1ccc(O)c(O)c1 [Example 25, 3-(3,4-dihydroxy-phenyl)-(S)-2-[3-trans-(3,4-dihydroxy-phenyl)-thioacryloylamino]-propionic acid propyl ester] | 4.60 to 5.00 | 14.8 ± 0.6 days | 5.7 ± 0.4 | 5.01 |  |  |
| CC(C)(C)OC(=O)[C@H](Cc1ccc(O)c(O)c1)NC(=S)/C=C/c1ccc(O)c(O)c1 [Example 27, 3-(3,4-dihydroxy-phenyl)-(S)-2-[3-trans-(3,4-dihydroxy-phenyl)-thioacryloylamino]-propionic acid tert-butyl ester] | 4.30 to 4.60 | 12.3 ± 0.6 days | 6.6 ± 1.1 | 4.70 |  |  |
| CC(C)(C)OC(=O)[C@@H](Cc1ccc(O)c(O)c1)OC(=O)/C=C/c1ccc(O)c(O)c1 [Example 56, (R)-3-(3,4-Dihydroxy-phenyl)-acrylic acid 2-(3,4-dihydroxy-phenyl)-1-tert-butoxycarbonyl ethyl ester] | 4.30 to 4.60 | 12.9 ± 1.2 days | 5.2 ± 0.5 | 5.21 |  |  |
| CC(C)NC(=O)[C@@H](Cc1ccc(O)c(O)c1)OC(=O)/C=C/c1ccc(O)c(O)c1 [Example 58, (R)-3-(3,4-Dihydroxy-phenyl)-acrylic acid 2-(3,4-dihydroxy-phenyl)-1-isopropylcarbamoyl ethyl ester] | 4.30 to 4.60 | 12.5 ± 1.3 days | 4.8 ± 0.7 | 5.27 |  |  |
| CN(C(=O)/C=C/c1ccc(O)c(O)c1)[C@@H](Cc1ccc(O)c(O)c1)C(N)=O [Example 42, N-[l-carbamoyl-2-(3,4-dihydroxy-phenyl)-ethyl]-(S)-3-trans-(3,4-dihydroxy-phenyl)-N-methyl-acrylamide] | 4.60 to 5.00 | 14.3 ± 0.9 days | 5.1 ± 1.9 | 4.84 |  |  |
| COC(=O)C(Cc1ccc(O)c(O)c1)NC(=O)NCc1ccc(O)c(O)c1 (stereo not shown) [Example 49, 2-[3-(3,4-dihydroxy-benzyl)-ureido]-3-(3,4-dihydroxy-phenyl)-propionic acid methyl ester] | 4.60 to 5.00 | 13 ± 1.5 days | 5.1 ± 0.9 | 4.69 |  |  |
| COC(=O)[C@H](Cc1ccc(O)c(O)c1)N(C)C(=O)/C=C/c1ccc(O)c(O)c1 [Example 36, 3-(3,4-dihydroxy-phenyl)-(S)-2-{[3-trans-(3,4-dihydroxy-phenyl)-acryloyl]-methyl-amino}-propionic acid methyl ester] | 4.30 to 4.60 | 12.9 ± 0.9 days | 6.1 ± 1.9 | 4.82 |  |  |
| COC(=O)C(Cc1ccc(O)c(O)c1)NC(=O)c1ccc(O)c(O)c1 (stereo not shown) [Example 51, 2-(3,4-dihydroxy-benzoylamino)-3-(3,4-dihydroxy-phenyl)-propionic acid methyl ester] | > 5.00 | 12.5 ± 1.1 days | 5.5 ± 0.5 | 4.76 |  |  |
| CO[C@H]1C[C@@H]2CC[C@@H](C)[C@@](O)(O2)C(=O)C(=O)N2CCCC[C@H]2C(=O)O[C@H]([C@H](C)C[C@@H]2CC[C@@H](O)[C@H](OC)C2)CC(=O)[C@H](C)/C=C(\C)[C@@H](O)[C@@H](OC)C(=O)[C@H](C)C[C@H](C)/C=C/C=C/C=C/1C [Rapamycine, reference compound] |  |  |  |  | 12.7 ± 1.5 days | 16.2 ± 1.0 days |
| COC(=O)[C@H](Cc1ccc(O)c(O)c1)NC(=O)/C=C/c1ccc(O)c(O)c1 [Example 8, 3-(3,4-dihydroxy-phenyl)-(S)-2-[3-trans-(3,4-dihydroxy-phenyl)-acryloylamino]-propionic acid methyl ester] | 4.60 to 5.00 | 15.2 ± 1.1 days | 6.0 ± 1.1 | 4.96 |  |  |
| COC(=O)[C@@H](Cc1ccc(O)c(O)c1)NC(=O)CCc1ccc(O)c(O)c1 [Example 52, 3-(3,4-dihydroxy-phenyl)-2-[3-(3,4-dihydroxy-phenyl)-propionylamino]-propionic acid methyl ester] | 4.60 to 5.00 | 13.4 ± 1.2 days | 4.0 ± 0.7 | 4.68 |  |  |
| CCOC(=O)[C@H](Cc1ccc(O)c(O)c1)NC(=O)/C=C/c1ccc(O)c(O)c1 [Example 10, 3-(3,4-dihydroxy-phenyl)-(S)-2-[3-trans-(3,4-dihydroxy-phenyl)-acryloylamino]-propionic acid ethyl ester] | 4.60 to 5.00 | 15.3 ± 0.8 days | 5.8 ± 0.8 | 5.36 |  |  |
| CCCOC(=O)[C@H](Cc1ccc(O)c(O)c1)N(C)C(=O)/C=C/c1ccc(O)c(O)c1 [Example 39, 3-(3,4-dihydroxy-phenyl)-(S)-2-{[3-trans-(3,4-dihydroxy-phenyl)-acryloyl]-methyl-amino}-propionic acid propyl ester] | 4.60 to 5.00 | 14.1 ± 1.2 days | 5.7 ± 1.2 | 5.01 |  |  |
| NC(=O)[C@H](Cc1ccc(O)c(O)c1)NC(=S)/C=C/c1ccc(O)c(O)c1 [Example 28, 3-(3,4-dihydroxy-phenyl)-(S)-2-[3-trans-(3,4-dihydroxy-phenyl)-thioacryloylamino]-propioneamide] | 4.60 to 5.00 | 13.9 ± 0.9 days | 5.8 ± 0.6 | 4.85 |  |  |
| O=C(O)[C@H](Cc1ccc(O)c(O)c1)NC(=S)/C=C/c1ccc(O)c(O)c1 [Example 23, 3-(3,4-dihydroxy-phenyl)-(S)-2-[3-trans-(3,4-dihydroxy-phenyl)-thioacryloylamino]-propionic acid] | 4.30 to 4.60 | 13.2 ± 0.8 days | 6.7 ± 0.8 | 4.80 |  |  |
| COC(=O)C(Cc1ccc(O)c(O)c1)NC/C=C/c1ccc(O)c(O)c1 (stereo not shown) [Example 53, 3-(3,4-dihydroxy-phenyl)-2-[3-(3,4-dihydroxy-phenyl)-arylamino]-propionic acid methyl ester] |  | 11.9 ± 1.1 days | 9.8 ± 1.2 | 4.61 |  |  |
| CCOC(=O)[C@@H](Cc1ccc(O)c(O)c1)NC(=S)/C=C/c1ccc(O)c(O)c1 [Example 17, 3-(3,4-dihydroxy-phenyl)-(R)-2-[3-trans-(3,4-dihydroxy-phenyl)-thioacryloylamino]-propionic acid ethyl ester] | 4.60 to 5.00 |  | 5.4 ± 0.7 | 5.34 |  |  |
| CCOC(=O)[C@H](Cc1ccc(O)c(O)c1)N(C)C(=O)/C=C/c1ccc(O)c(O)c1 [Example 38, 3-(3,4-dihydroxy-phenyl)-(S)-2-{[3-trans-(3,4-dihydroxy-phenyl)-acryloyl]-methyl-amino}-propionic acid ethyl ester] | 4.60 to 5.00 |  | 5.5 ± 1.3 | 4.96 |  |  |
| NC(=O)[C@@H](Cc1ccc(O)c(O)c1)NC(=S)/C=C/c1ccc(O)c(O)c1 [Example 21, 3-(3,4-dihydroxy-phenyl)-(R)-2-[3-trans-(3,4-dihydroxy-phenyl)-thioacryloylamino]-propioneamide] | 4.60 to 5.00 |  | 5.8 ± 1.3 | 5.11 |  |  |
